Source: BindingDB's records for doi:10.1021/jm00121a001 (University of Utah, 1989)

Test: Inhibition of compound against Guanine-7-methyl transferase

SMILES: Nc1nc(O)c2cc(CSC[C@H]3O[C@@H](n4cnc5c(N)ncnc54)[C@H](O)[C@@H]3O)[nH]c2n1
- Ki: 93 µM
